Results from patent US6277867A, “Pesticide compounds, compositions and process for the preparation thereof” (priority 1995, dated 2001).

Key:
mammals = conditions: cited from earlier work
[1] = test system: house fly (Musca domestica); assay: Effect on fecundity, on house fly; format: in vivo; conditions: 500 ppm in granulated sugar, 48 hours feeding; eggs of next 10 days
Description: Investigation of the Effect on Fecundity, on House Fly (Musca domestica)
Groups consisting of freshly hatched 50 male and 50 female flies were fed during 48 hours with granulated sugar comprising 500 ppm of material No. 441 and 484 of the present invention respectively, and the eggs layed on the next 10 days were raised. The fecundity-hindering effect was expressed as the quotient of the emerged flies in the treated and untreated groups. The experiments were performed in 4 replica.

[2] = test system: house fly (Musca domestica); assay: Effect of the active ingredient:synergist ratio on the synergistic activity (flies)
Description: Effect of the Active Ingredient:Synergist Ratio on the Synergistic Activity
Treatment was performed as described in Example 1. using Hamilton MicroLab P microdispenser. In two parallel experiments 10 female -3 day old flies were treated on the ventral side of their thorax with 0.2 μl test solution. Beside 1000-400-200-80 ng/fly fixed doses of the synergist they were treated with constant 20 ng/fly CARBOFURAN®. Selection and counting of the flies were performed under the action of CO2. After treatment the flies were kept in plastic cups covered with tulle. After 24 hours mortality % was recorded. Depending on the results the experiments were performed in 2-4 replica.

[3] = test system: cotton bollworm (Helicoverpa armigera); assay: Synergistic activity on cotton bollworm following topical application; conditions: in vivo
Description: Investigation of Synergistic Activity on Cotton Bollworm (Helicoverpa armigera) Following Topical Application
Treatment was performed similarity as described in Example 1. but L2 stadium grubs of cotton bollworms (Helicoverpa armigera) were treated as test animals. From the 24 hour dose--mortality data the LD50 (ng/grub) values were determined using probit analysis. None of the synergists acted at the applied 1000 ng/grub dose. Synergist ratio was calculated as the quotient of the LD50 values of carbofuran administered alone, and with the synergist. The experiments were performed in 2-4 replica.

flies = assay: Comparative investigations with known reference synergists on flies treated with carbofuran; format: in vivo; conditions: flies treated with carbofuran and 1000 ng of the synergist
Source text: These SR50 ratios were compared to those of the new compounds prepared by us.

[4] = test system: house fly (Musca domestica); conditions: in vivo, topical_or_ocular, 1440 min
Description: Investigation of Synergistic Activity on House Fly (Musca domestica) Following Topical Application
In two parallel experiments 10 female. 2-4 day old house flies were treated on the vental side of their thorax with 0.2 μl of the test solution, with the help of Hamilton MicroLab P microdispenser. Beside fixed synergist dose of 1000 ng/fly the animals were treated with carbofuran at a dose of 20 ng/fly. For solvent cellosolve was used. Selection and counting of the flies were performed under the action of CO2. After treatment the flies were kept in plastic cups covered with tulle. Mortality after 24 hours was expressed in %.

| Compound | tumor provoking effect (mammals) | Hindering effect on fecundity [1] | 24 hour mortality (%) ([2]; carbofuran 20 ng/fly + synergist 80 ng/fly) | 24 hour mortality (%) ([2]; carbofuran 20 ng/fly + synergist 200 ng/fly) | 24 hour mortality (%) ([2]; carbofuran 20 ng/fly + synergist 400 ng/fly) | 24 hour mortality (%) ([2]; house fly, in vivo, topical_or_ocular) | Synergist ratio [3] | Synergist ratio SR50 (flies) | mortality % [4] |
| --- | --- | --- | --- | --- | --- | --- | --- | --- | --- |
| CCCCOCCOCCOCc1cc2c(cc1CCC)OCO2 [PBO] | suspected tumor provoking effect |  |  |  |  |  |  |  |  |
| CC#CCOCc1ccc2c(c1)OCO2 [Compound 441, 5-[(But-2-ynyloxy)-methyl]-1,3-benzodioxole] |  | 87% | 62% | 67% | 90% | 95% | > 5 | 25.70 | 97% |
